Measured values as given in ChEMBL document CHEMBL1201862, “PubChem BioAssay data set” (2004).
Activity calls are given as the source filed them.

How the values were obtained:
[1] = viability of BHK-21 cells – cell-based, secondary screen, cytotoxicity control for flavivirus guanylyltransferase probe project (AID 624078); format: functional
[2] = target: T1, Short transient receptor potential channel 4 (Mus musculus, UniProt Q9QUQ5); assay: block of DAMGO-driven TRPC4 calcium entry – cell-based, HEK293 TRPC4/mu-opioid, Fluo-4 calcium, dose response (AID 434942); format: functional;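 note: potency of inhibitors blocking the TRPC4 calcium response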
T1 sequence (Q9QUQ5 whole entry): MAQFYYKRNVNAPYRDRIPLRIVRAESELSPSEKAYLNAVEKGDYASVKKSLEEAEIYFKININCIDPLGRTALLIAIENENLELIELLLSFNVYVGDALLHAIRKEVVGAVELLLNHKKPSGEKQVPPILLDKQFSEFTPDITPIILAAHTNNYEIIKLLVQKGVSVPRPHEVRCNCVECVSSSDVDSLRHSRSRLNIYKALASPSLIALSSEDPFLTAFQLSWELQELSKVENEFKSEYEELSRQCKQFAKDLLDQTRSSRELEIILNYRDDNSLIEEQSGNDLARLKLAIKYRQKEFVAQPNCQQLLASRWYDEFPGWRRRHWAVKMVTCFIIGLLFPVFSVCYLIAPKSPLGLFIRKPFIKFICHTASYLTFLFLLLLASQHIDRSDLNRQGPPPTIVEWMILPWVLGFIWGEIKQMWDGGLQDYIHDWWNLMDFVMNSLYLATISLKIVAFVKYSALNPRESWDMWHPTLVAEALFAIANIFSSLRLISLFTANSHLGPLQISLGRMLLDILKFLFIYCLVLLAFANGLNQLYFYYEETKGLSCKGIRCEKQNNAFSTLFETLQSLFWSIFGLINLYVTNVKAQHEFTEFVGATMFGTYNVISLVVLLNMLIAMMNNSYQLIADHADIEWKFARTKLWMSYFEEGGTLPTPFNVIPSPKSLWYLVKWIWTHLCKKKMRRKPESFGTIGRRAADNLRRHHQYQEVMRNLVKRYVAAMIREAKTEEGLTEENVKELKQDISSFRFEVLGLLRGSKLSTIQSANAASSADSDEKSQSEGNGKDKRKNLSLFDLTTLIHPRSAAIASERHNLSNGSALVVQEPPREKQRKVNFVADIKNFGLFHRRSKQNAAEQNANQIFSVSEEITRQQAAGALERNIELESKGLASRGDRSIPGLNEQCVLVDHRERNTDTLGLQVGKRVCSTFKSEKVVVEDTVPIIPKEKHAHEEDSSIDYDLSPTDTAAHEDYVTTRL

SMILES	CC50 [1]	EC50 [2]
O=C(O)CSc1cc(NS(=O)(=O)c2ccc(Cl)cc2)c2ccccc2c1O	7.78 µM (active)	
Cc1nn(-c2ccccc2)c(Cl)c1CN(C(=O)CCl)c1ccc(Cl)cc1		0.237 µM (active)
